The target in one data set is FKBP12 (Homo sapiens, UniProt P62942). The data set can be described thus: In vitro FKBP12 binding assay (GdnHCl unfolding). As to conditions: relative to literature Kd of rapamycin 0.2 nM. From the text: FKBP12 reversibly unfolds in the chemical denaturant guandinium hydrochloride (GdnHCl) and the unfolding can be monitored by the change in the intrinsic fluorescence of the protein (Main et al, 1998). Ligands which specifically bind and stabilise the native state of FKBP12 shift the denaturation curve such that the protein unfolds at higher concentrations of chemical denaturant (Main et al, 1999). From the difference in stability, the ligand-binding constant can be determined using equation 1.
where ΔGapp is the apparent difference in free energy of unfolding between free and ligand-bound forms, ΔGD−N^H^2^O is the free energy of unfolding in water of free protein, [L] the concentration of ligand and kd the dissociation constant for the protein-ligand complex (Meiering et al, 1992). The free energy of unfolding can be related to the midpoint of the unfolding transition using the following equation: […]
where mD−N is a constant for a given protein and given denaturant and which is proportional to the change in degree of exposure of residues on unfolding (Tanford 1968 and Tanford 1970), and [D]50% is the concentration of denaturant corresponding to the midpoint of unfolding.
where <mD−N> is the average m-value of the unfolding transition and Δ[D]50% the difference in midpoints for the rapamycin-FKBP12 unfolding transition and unknown-ligand-FKBP12 complex unfolding transition. Under conditions where [L]>Kd, then, ΔΔGD−N, can be related to the relative Kds of the two compounds through equation 4: […]

A further data set has as its system HOP-62. The experiment in a line: Monolayer assay Protocol 2 (SRB), high MDR-expressing cell lines. The data set is classed as cell-based. Particulars: Homo sapiens; NSCLC HOP-62, high MDR-expressing, 48 h. The procedure: (§1) The human tumor cell lines of the National Cancer Institute (NCI) cancer screening panel were grown in RPMI 1640 medium containing 5% fetal bovine serum and 2 mM L-glutamine (Boyd and Paull, 1995). Cells were inoculated into 96 well microtiter plates in 0.1 mL at plating densities ranging from 5,000 to 40,000 cells/well depending on the doubling time of individual cell lines. After cell inoculation, the microtiter plates were incubated at 37° C., 5% CO2, 95% air and 100% relative humidity for 24 h prior to addition of experimental drugs.
(§2) After 24 h, two plates of each cell line were fixed in situ with trichloroacetic acid (TCA), to represent a measurement of the cell population for each cell line at the time of drug addition (Tz). Experimental drugs were solubilized in dimethyl sulfoxide at 400-fold the desired final maximum test concentration and stored frozen prior to use. At the time of drug addition, an aliquot of frozen concentrate was thawed and diluted to twice the desired final maximum test concentration with complete medium containing 0.05 mg/mL gentamicin. Additional four, 10-fold or ½ log serial dilutions were made to provide a total of five drug concentrations plus control. […]
(§3) Following drug addition, the plates were incubated for an additional 48 h at 37° C., 5% CO2, 95% air, and 100% relative humidity. […] Bound stain was subsequently solubilized with 10 mM trizma base, and the absorbance was read on an automated plate reader at a wavelength of 515 nm. […] Using the seven absorbance measurements [time zero, (Tz), control growth, (C), and test growth in the presence of drug at the five concentration levels (Ti)], the percentage growth was calculated at each of the drug concentrations levels. Percentage growth inhibition was calculated as:
(§4) Three dose response parameters were calculated for each experimental agent. […] The drug concentration resulting in total growth inhibition (TGI) was calculated from Ti=Tz. […]

A further data set has as its system UO-31. The description is as above. In kind it is cell-based. As to conditions: Homo sapiens; Renal UO-31, high MDR-expressing, 48 h. The procedure: as §1, §2, §3, §4
The subject of the next data set is SW-620. Described as above. In kind it is cell-based. Particulars: Homo sapiens; Colon SW-620, high MDR-expressing, 48 h. How it is done: as §1, §2, §3, §4
A short description of data set [1]: Pharmacokinetic analysis Protocol 1 (blood and brain). Particulars: female, CD1, mouse, 3 mg/kg.
Protocol: The test compounds were prepared in a vehicle consisting of 4% Ethanol, 5% Tween-20, 5% polyethyleneglycol 400 in 0.15M NaCl. A single dbse of 10 mg/kg p.o. or 3 mg/kg i.v. was administered to groups of female CD1 mice (3 mice for each compound per time point). At 0 min, 4 min, 15 min, 1 h, 4 h, and 24 h groups were sacrificed and the blood and the brain were collected from each mouse for further analysis.
The brain samples were snap frozen in liquid nitrogen and stored at −20° C. A minimum of 0.2 mL of whole blood from each animal was collected in tubes containing ethylene diamine tetra-acetic acid (EDTA) as anticoagulant, thoroughly mixed, and stored at −20° C.
Analysis was performed by ASI Limited, (St George's Hospital Medical School, London). The concentration of the test compound in the blood and brain samples supplied was determined by HPLC with MS detection. Control, test compound free, blood samples were obtained from Harlan Sera-Lab Limited, (Loughborough, England). Time zero brain samples were supplied as control, test compound free, brain samples.
One hemisphere of each brain was homogenized with 5 mL water.
The control or test sample of mouse brain or blood (0.05 mL), internal standard solution (0.1 mL), 5% Zinc sulphate solution (0.5 mL), and acetone (0.5 mL) were pipetted into a 2 mL polypropylene tube (Sarstedt Limited, Beaumont Leys, Leicester, UK) and the contents were then mixed for a minimum of 5 minutes (IKA-Vibrax-VXR mixer, Merck (BDH) Limited, Poole Dorset, UK). The tubes were then centrifuged in a microfuge for a minimum of 2 minutes. The solvent layer was decanted into a 4.5 mL polypropylene tube containing sodium hydroxide (0.1M, 0.1 mL) and methyl-tert-butyl ether (MTBE, 2 mL). The tube was then mixed for a minimum of 5 minutes (IKA-Vibrax-VXR mixer) and then centrifuged at 3500 rpm for 5 minutes. The solvent layer was transferred to a 4.5 mL conical polypropylene tube, placed in a SpeedVac® and evaporated to dryness.
The dried extracts were reconstituted with 0.15 mL 80% methanol and mixed for a minimum of 5 minutes (IKA-Vibrax-VXR mixer) and centrifuged at 3500 rpm for 5 minutes. The extract was transferred to auto sampler tubes (NLG Analytical, Adelphi Mill, Bollington, Cheshire, UK) and placed into the auto-sampler tray which was set at ambient temperature. The auto-sampler was programmed to inject a 0.03 mL aliquot of each extract onto the analytical column.
The AUC for each compound in blood or in brain tissue was calculated using Kinetica 4.4 (InnaPhase Corporation), using a non-compartmental model and the trapezoidal method for AUC calculation.
The partition coefficient (Ri) for each compound after p.o. and i.v. administration was calculated as shown below:
The partition coefficient (R) for each compound after i.v. administration was calculated as shown below:

FKBP12, sequence (P62942 whole entry, species assumed): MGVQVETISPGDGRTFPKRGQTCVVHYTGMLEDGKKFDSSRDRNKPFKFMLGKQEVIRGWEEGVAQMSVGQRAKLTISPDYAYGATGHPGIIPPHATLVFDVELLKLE

In turn, `COC1CC2CCC(C)C(O)(O2)C(=O)C(=O)N2CCCCC2C(=O)OC(C(C)CC2CCC(O)CC2)CC(=O)C(C)C=C(C)C(O)C(OC)C(=O)C(C)CC(C)C=CC=CC=C1C` (stereo not drawn) [39-desmethoxyrapamycin] returned a Kd at FKBP12 of 0.0007 µM. In other words, the sub-nanomolar range.

Regarding `CO[C@H]1C[C@@H]2CC[C@@H](C)[C@@](O)(O2)C(=O)C(=O)N2CCCC[C@H]2C(=O)O[C@H]([C@H](C)C[C@@H]2CC[C@@H](O)[C@H](OC)C2)CC(=O)[C@H](C)/C=C(\C)[C@@H](O)[C@@H](OC)C(=O)[C@H](C)C[C@H](C)/C=C/C=C/C=C/1C` [Rapamycin], the values for the GI50 in the data set on HOP-62, with UO-31 and with SW-620 were 0.234 µM, 0.1 µM and 25.1 µM, respectively. This molecule returned a Kp in data set [1] (brain / whole blood, intravenous) of 1.13. In addition, in data set [1] (whole blood, iv), the AUC was found to be 10800 ng·h/mL.

The values are drawn from patent US20100061994A1, “MEDICAL USES OF 39-DESMETHOXYRAPAMYCIN AND ANALOGUES THEREOF” (priority 2005, published 2010).
